{"source": "paper PMC4971421", "about": "“Redox-Dependent Modulation of T-Type Ca^2+ Channels in Sensory Neurons Contributes to Acute Anti-Nociceptive Effect of Substance P” (Antioxidants & Redox Signaling, 2016)", "key": {"[1]": {"tested_on": "T-type Ca^2+ channels (LVA Ca^2+ current) in DRG neurons", "test": "LVA (T-type) Ca2+ current, whole-cell patch clamp, cultured small-diameter DRG neurons", "assay_type": "cell-based, rat", "settings": "for effect on S9SP-mediated T-type current inhibition: 1 μM S9SP", "experimental": "(§1) DRG neurons from adult male Sprague–Dawley rats (170–180 g) were dissociated as previously described ([13], [29]) and cultured in DMEM supplemented with GlutaMax I, 10% fetal calf serum, penicillin (50 U/ml), and streptomycin (50 μg/ml) on glass coverslips that were coated with poly-D-lysine for 2–5 days in a humidified incubator (37°C, 5% CO2). No growth factors were added to the culture media. HEK 293 cells were cultured in the same DMEM media; cells were passaged every 2 days. Human NK1 receptor (GenBank accession No. AY462098) complementary DNA (cDNA) was from the Missouri Science and Technology cDNA Resource Center. WtCaV3.1 (GenBank accession No. AF027984), wtCaV3.2 (GenBank accession No. AF051946), CaV3.1Q172H, and CaV3.2H191Q were kindly provided by Dr E. Perez-Reyes (University of Virginia). HEK293 cells were transfected using Lipofectamine 2000 (Invitrogen) according to the manufacturer's instructions. ST101 was synthesized in house; Z944 was from Toronto Research Chemicals; PTX was from Enzo Life Science; and FluoZin-3AM was from Life Technologies. All other chemicals were from Sigma.\nAll recordings were made using Multiclamp 700B amplifier in combination with pCLAMP 10.4 software (Molecular Devices). Voltage-clamp recordings from DRG neurons were made using whole-cell patch clamp. The standard bath solution contained the following (in mM): 150 TEA-Cl; 2.5 CsCl; 2.5 CaCl2; 10 HEPES; 0.5 MgCl2; and 10 glucose (pH 7.4 adjusted with CsOH). The standard pipette solution contained the following (in mM): 110 CsCl; 3 MgCl2; 10 EGTA; 10 HEPES; 3 Mg-ATP; and 0.6 GTP (pH 7.4 adjusted with CsOH). The access resistance was typically within 4–8 MΩ. T-type calcium currents (LVA) were measured by 50 ms square voltage pulses to −40 mV from a holding potential of −90 mV. HVA currents were measured by 200 ms square voltage pulses to 0 mV from a holding potential of −90 mV.\nwhere y is the current inhibition; A1 and A2 are the maximum and minimum effects, respectively; x is the S9SP concentration; and nH is the Hill coefficient."}, "[2]": {"tested_on": "intracellular zinc levels in DRG neurons", "test": "Intracellular zinc imaging with FluoZin-3AM", "assay_type": "cell-based, rat", "settings": "for effect on zinc levels elevated by ZnPy: in the presence of 10 μM ZnPy", "experimental": "Changes in the intracellular zinc levels were evaluated using fluorescence imaging. DRG cultures were loaded with FluoZin-3AM (5 μM for 30 min at 37°C in the presence of 0.02% pluronic F-127). Cells were washed with extracellular bath solution composed of the following (in mM): 160 NaCl; 2.5 KCl; 2 CaCl2; 1 MgCl2; and 10 HEPES (pH 7.4 adjusted with NaOH); they were imaged using a Leica SP5 fluorescence imaging system assembled on a Leica DMI6000 microscope and illuminated with 488 nm light for 1200 ms (400 Hz) with a 2 s interval. Solutions were applied using a gravity perfusion system."}, "CaV3.2": {"target": "T1, CaV3.2 (Homo sapiens, UniProt O95180)", "T1 construct": "expressed in transfected cells; host or cells: HEK293 cells, transient transfection with Lipofectamine 2000; The CaV3.2 cDNA was a gift of Dr E. Perez-Reyes; The NK1 cDNA was from the Missouri S&T cDNA Resource Center", "T1 sequence (O95180 whole entry)": "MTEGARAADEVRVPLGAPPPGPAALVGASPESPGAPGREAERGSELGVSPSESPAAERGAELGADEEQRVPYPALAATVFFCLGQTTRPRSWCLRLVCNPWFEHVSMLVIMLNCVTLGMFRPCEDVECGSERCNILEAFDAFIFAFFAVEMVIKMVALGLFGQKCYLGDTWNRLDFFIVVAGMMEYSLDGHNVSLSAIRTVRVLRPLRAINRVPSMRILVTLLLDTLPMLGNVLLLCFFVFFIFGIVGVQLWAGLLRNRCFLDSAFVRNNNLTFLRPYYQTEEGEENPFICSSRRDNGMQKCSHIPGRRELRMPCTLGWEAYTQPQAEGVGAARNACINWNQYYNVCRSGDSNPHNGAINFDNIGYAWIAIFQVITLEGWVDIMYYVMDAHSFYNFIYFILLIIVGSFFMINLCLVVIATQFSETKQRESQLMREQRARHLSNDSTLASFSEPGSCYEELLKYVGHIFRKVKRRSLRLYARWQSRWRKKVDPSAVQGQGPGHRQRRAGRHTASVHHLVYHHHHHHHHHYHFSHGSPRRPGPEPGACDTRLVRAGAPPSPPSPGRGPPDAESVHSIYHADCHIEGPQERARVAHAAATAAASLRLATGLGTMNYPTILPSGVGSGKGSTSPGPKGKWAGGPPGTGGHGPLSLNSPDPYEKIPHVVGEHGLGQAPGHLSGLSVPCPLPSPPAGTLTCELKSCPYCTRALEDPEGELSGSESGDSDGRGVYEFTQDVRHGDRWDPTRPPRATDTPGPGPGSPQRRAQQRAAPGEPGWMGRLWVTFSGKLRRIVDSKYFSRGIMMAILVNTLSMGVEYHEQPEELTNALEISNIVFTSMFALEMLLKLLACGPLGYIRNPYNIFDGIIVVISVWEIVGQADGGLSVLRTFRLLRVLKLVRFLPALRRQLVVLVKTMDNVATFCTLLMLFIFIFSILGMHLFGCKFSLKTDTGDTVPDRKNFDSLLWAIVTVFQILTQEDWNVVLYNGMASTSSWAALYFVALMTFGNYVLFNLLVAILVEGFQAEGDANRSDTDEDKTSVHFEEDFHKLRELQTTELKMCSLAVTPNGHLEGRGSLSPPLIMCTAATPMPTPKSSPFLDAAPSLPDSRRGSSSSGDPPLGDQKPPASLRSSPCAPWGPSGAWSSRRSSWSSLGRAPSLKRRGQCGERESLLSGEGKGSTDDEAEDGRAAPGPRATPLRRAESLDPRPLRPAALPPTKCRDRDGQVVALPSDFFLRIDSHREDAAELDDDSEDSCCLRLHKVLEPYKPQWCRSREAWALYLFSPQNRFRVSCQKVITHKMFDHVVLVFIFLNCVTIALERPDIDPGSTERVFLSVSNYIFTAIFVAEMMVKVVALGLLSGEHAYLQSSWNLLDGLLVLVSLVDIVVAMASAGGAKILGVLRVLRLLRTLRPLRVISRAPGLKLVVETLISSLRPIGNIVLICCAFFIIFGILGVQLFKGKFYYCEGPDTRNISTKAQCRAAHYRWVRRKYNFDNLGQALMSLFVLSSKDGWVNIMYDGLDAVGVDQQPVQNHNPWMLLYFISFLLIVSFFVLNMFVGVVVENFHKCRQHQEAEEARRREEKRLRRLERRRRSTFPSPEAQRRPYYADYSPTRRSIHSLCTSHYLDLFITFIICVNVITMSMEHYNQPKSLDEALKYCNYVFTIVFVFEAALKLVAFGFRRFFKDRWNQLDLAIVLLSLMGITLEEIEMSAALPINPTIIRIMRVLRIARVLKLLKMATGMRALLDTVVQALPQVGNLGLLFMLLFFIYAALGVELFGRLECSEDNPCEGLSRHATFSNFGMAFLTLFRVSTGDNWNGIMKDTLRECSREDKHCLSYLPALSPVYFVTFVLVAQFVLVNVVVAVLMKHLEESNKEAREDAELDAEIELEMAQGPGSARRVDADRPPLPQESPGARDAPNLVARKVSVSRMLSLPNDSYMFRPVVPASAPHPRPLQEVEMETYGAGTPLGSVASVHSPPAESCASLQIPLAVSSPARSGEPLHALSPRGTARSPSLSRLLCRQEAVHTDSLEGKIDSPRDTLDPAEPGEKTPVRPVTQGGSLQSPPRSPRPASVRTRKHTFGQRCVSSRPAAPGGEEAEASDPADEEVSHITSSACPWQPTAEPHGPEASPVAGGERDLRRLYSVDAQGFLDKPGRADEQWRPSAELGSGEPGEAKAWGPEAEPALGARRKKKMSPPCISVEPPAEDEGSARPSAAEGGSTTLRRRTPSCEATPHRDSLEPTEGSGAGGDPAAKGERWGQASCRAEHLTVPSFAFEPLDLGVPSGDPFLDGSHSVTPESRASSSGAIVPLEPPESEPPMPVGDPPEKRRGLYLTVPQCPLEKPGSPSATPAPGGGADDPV", "test": "Recombinant CaV3.2 current in HEK293 cells co-transfected with NK1 receptor, perforated patch", "assay_type": "cell-based", "experimental": "as §1\nIn recordings from HEK 293 cells, amphotericin B-perforated patch-clamp technique was used ([13]). The pipette solution contained the following (in mM): 155 CsCl; 10 HEPES; 1 EGTA; and 4 MgCl2 supplemented with amphotericin B (250 μg/ml), pH 7.4 adjusted with CsOH. The bath solution was the same as for DRG neuron recordings. The access resistance was typically within 8–12 MΩ.\nIn experiments with H2O2, 3% agar-salt (3 M KCl) bridges were used. Concentration dependence of CaV3.2 channel inhibition by zinc was fit to the two-component logistic function:\nwhere N0 is the total amount of zinc-binding sites, N0(max1) is the amount of high-affinity binding sites, N0(max2) is the amount of low-affinity binding sites, Imax is the maximal CaV3.2 peak current amplitude, IC50 is the [Zn^2+] necessary for half-maximal inhibition, and nH is the Hill coefficient. The concentration dependency of the S9SP effect was fit to the one-component logistic function: […]"}, "rat hind paw [3]": {"tested_on": "rat hind paw", "test": "Hargreaves test, paw withdrawal latency to noxious heat", "assay_type": "in vivo", "settings": "hind-paw injection 50 μl; 0.1–10 nmol/site; 8 min after injection", "experimental": "For measurement of thermal hyperalgesia, the change in the latency of hind-paw withdrawal in response to noxious heat was recorded using the Hargreaves’ plantar method (Ugo Basile) at 8 min after the hind-paw injection of drugs; the heat source was set to 25% of the maximal intensity."}, "rat hind paw [4]": {"tested_on": "rat hind paw", "test": "BK-induced nocifensive behavior, pre-injection protocol", "assay_type": "in vivo", "settings": "pre-injection 50 μl; 1–10 nmol/site, 5 min before BK 10 nmol/site", "experimental": "Sprague–Dawley rats (body weight, 170–180 g) were grouped randomly and allowed to acclimate for at least 30 min in a transparent observation chamber before the experiment. Animals received a 50-μl intraplantar injection of ST101 (0.001–10 nmol/site), BK (10 nmol/site), RTG (1–10 nmol/site), Z944 (0.05–5 nmol/site), SP (0.5–5 nmol/site), or saline, respectively, into the right hind paw. For evaluation of the acute “spontaneous” pain, animals were video-recorded for 30 min after the injection and protective (“nocifensive”) behavior was analyzed as time spent licking, biting, lifting, and flinching the injected paw. The analyses were performed by an observer who was unaware of treatment allocations. In the pre-injection experiments, the right hind paw of the animal received a pre-injection of 50 μl Z944 (0.05–0.5 nmol/site), RTG (1–10 nmol/site), SP (0.5 nmol/site), Z944 (0.05–0.5 nmol/site)+RTG (1 nmol/site), or saline; 5 min later, on the same paw, the animal received a further 50-μl injection of BK (10 nmol/site) together with the pre-injection drug mix. Nocifensive behavior was analyzed as described earlier.\nThe in vivo CaV3.2 knock-down was performed as described earlier ([3]) by using the same ODN sequences that were synthesized by SBS Genetech. AS ODNs had the following sequence: […]. The mismatch ODNs of the following sequence were used as a negative control: […]. The mismatch ODN was not complementary to any known nucleotide sequence. ODNs were reconstituted in saline before injection. ODNs (12.5 μg/rat in 10 μl of saline) or saline were injected intrathecally (i.t.) between the L5 and L6 dorsal spinous processes as described earlier ([3], [42]) under isoflurane anesthesia. The treatment was repeated twice daily for 4 days. The pain tests were performed on the next day after the last injection. After behavioral testing, animals were humanly sacrificed; lumbar DRGs were extracted and analyzed for the knock-down efficiency by comparing the Cacna1h mRNA levels in lumbar (L4 to L6) DRGs of the saline-injected, mismatch ODN-injected, and AS ODN-injected animals using RT-PCR. The same Cacna1h and Gapdh primers as in siRNA experiments were used for RT-PCR."}}, "note": "Read-outs that look alike come from different tables or passages of the source.", "data": [{"compound": "O[C@@H](CS)[C@@H](O)CS", "note": "(racemic) [DTT, dithiothreitol]", "values": [{"measurement": "effect on LVA current amplitude on its own", "setting": "[1]; 1 mM", "value": "did not significantly affect"}, {"measurement": "prevention of S9SP effect on LVA current when applied together", "setting": "[1]; 1 mM DTT before and during 1 μM S9SP", "value": "rendered S9SP ineffective"}, {"measurement": "reversal of S9SP-induced LVA current inhibition", "setting": "[1]; 1 mM DTT in continued presence of 1 μM S9SP", "value": "completely reversed"}, {"measurement": "reversal of antimycin A-induced LVA current inhibition", "setting": "[1]; 1 mM DTT, 1 μM antimycin A", "value": "completely reversed"}, {"measurement": "reversal of H2O2-induced LVA current inhibition", "setting": "[1]; 1 mM DTT, 300 μM H2O2", "value": "reversed"}, {"measurement": "effect on zinc levels elevated by ZnPy", "setting": "[2]; 1 mM", "value": "did not alter the elevated zinc levels"}]}, {"compound": "CN(C)CCCn1cc(C2=C(c3c[nH]c4ccccc34)C(=O)NC2=O)c2ccccc21", "note": "[BIM I, bisindolylmaleimide I]", "values": [{"measurement": "effect on S9SP-mediated T-type current inhibition", "setting": "[1]; 200 nM, 20 min pretreatment", "value": "without a significant effect"}]}, {"compound": "COc1ccccc1CN[C@H]1CCCN[C@H]1c1ccccc1.Cl.Cl", "note": "[CP-99994, (2S,3S)-3-(2-Methoxybenzylamino)-2-phenylpiperidine dihydrochloride]", "values": [{"measurement": "effect on S9SP-induced LVA current inhibition", "setting": "[1]; 3 μM, 30 min pre-incubation, co-applied with 1 μM S9SP", "value": "abolished the effect of S9SP"}]}, {"compound": "OO", "note": "[H2O2]", "values": [{"measurement": "inhibition of LVA current", "setting": "[1]; 300 μM bath application", "value": "~20", "unit": "%"}, {"measurement": "effect on recombinant CaV3.2", "setting": "CaV3.2; H2O2", "value": "inhibited"}]}, {"compound": "COCC(=O)O[C@]1(CCN(C)CCCc2nc3ccccc3[nH]2)CCc2cc(F)ccc2[C@@H]1C(C)C", "note": "[MIB, mibefradil]", "values": [{"measurement": "sensitivity of LVA currents to inhibitor", "setting": "[1]; 3 μM", "value": "sensitive"}]}, {"compound": "CCOC(=O)Nc1ccc(NCc2ccc(F)cc2)cc1N", "note": "[RTG, retigabine]", "values": [{"measurement": "paw withdrawal latency on radiant heat exposure", "setting": "rat hind paw [3]", "value": "produced a similar effect"}, {"measurement": "BK-induced nociception", "setting": "rat hind paw [4]", "value": "significantly attenuated"}]}, {"compound": "CSCC[C@H](NC(=O)[C@H](CC(C)C)NC(=O)CN(C)C(=O)[C@H](Cc1ccccc1)NC(=O)[C@H](Cc1ccccc1)NC(=O)[C@H](CCC(N)=O)NC(=O)[C@H](CCC(N)=O)NC(=O)[C@@H]1CCCN1C(=O)[C@H](CCCCN)NC(=O)[C@@H]1CCCN1C(=O)[C@@H](N)CCCNC(=N)N)C(N)=O", "note": "[S9SP, [Sar^9]-Substance P]", "values": [{"measurement": "current amplitude in the presence of S9SP, % of basal value", "setting": "CaV3.2; 1 μM S9SP, wtCaV3.2, mean ± SEM, n = 13, SEM", "value": "69.8% ± 6.8%"}]}, {"compound": "c1ccc(CN(CCN(Cc2ccccn2)Cc2ccccn2)Cc2ccccn2)nc1", "note": "[TPEN, N,N,N′,N′-Tetrakis(2-pyridylmethyl)ethylenediamine]", "values": [{"measurement": "reversal of S9SP-induced LVA current inhibition", "setting": "[1]; 10 μM TPEN bath application, still in the presence of 1 μM S9SP", "value": "completely reversed"}, {"measurement": "effect on SP- and H2O2-induced inhibitions of recombinant CaV3.2", "setting": "CaV3.2", "value": "prevented"}, {"measurement": "effect on CaV3.2 currents in control conditions", "setting": "CaV3.2; 10 μM", "value": "only marginal augmentation"}, {"measurement": "effect on zinc levels elevated by ZnPy", "setting": "[2]; 20 μM", "value": "completely reversed the increase in fluorescence"}]}, {"compound": "[Cl-].[Cl-].[Zn+2]", "note": "[ZnCl2]", "values": [{"measurement": "inhibition of LVA current", "setting": "[1]; 750 nM, n = 9", "value": "~25", "unit": "%"}, {"measurement": "maximal inhibition at the high-affinity site", "setting": "CaV3.2; S9SP-treated cells (1 μM)", "value": "44.1% ± 5.1%"}, {"measurement": "IC50", "setting": "CaV3.2; after S9SP treatment, 1 μM S9SP in all ZnCl2 solutions, read-out: IC50(1), high-affinity site, zinc inhibition of CaV3.2", "value": "0.35 ± 0.25", "unit": "nM"}, {"measurement": "IC50", "setting": "CaV3.2; after S9SP treatment, 1 μM S9SP in all ZnCl2 solutions, read-out: IC50(2), low-affinity site, zinc inhibition of CaV3.2", "value": "923 ± 582", "unit": "nM"}, {"measurement": "maximal inhibition at the high-affinity site", "setting": "CaV3.2; control cells", "value": "9.9% ± 11.3%"}, {"measurement": "IC50", "setting": "CaV3.2; control conditions, two-component logistic fit, 6–12 experiments, read-out: IC50(1), high-affinity site, zinc inhibition of CaV3.2", "value": 0.25, "unit": "nM"}, {"measurement": "IC50", "setting": "CaV3.2; control conditions, two-component logistic fit, 6–12 experiments, read-out: IC50(2), low-affinity site, zinc inhibition of CaV3.2", "value": "495 ± 326", "unit": "nM"}, {"measurement": "intracellular zinc levels (FluoZin-3 fluorescence)", "setting": "[2]; 1.5 mM", "value": "large responses"}]}, {"compound": "CCCCCC[C@H]1C(=O)O[C@H](C)[C@H](NC(=O)c2cccc(NC=O)c2O)C(=O)O[C@@H](C)[C@@H]1OC(=O)CC(C)C", "note": "[antimycin A]", "values": [{"measurement": "inhibition of LVA current", "setting": "[1]; 1 μM", "value": "~25", "unit": "%"}]}, {"compound": "Arg-Pro-Lys-Pro-Gln-Gln-Phe-Phe-Sar-Leu-Met[O2]-NH2 [S9M11SP, [Sar^9, Met(O2)^11]-Substance P]", "values": [{"measurement": "LVA current inhibition", "setting": "[1]; 1 μM", "value": "quantitatively similar to that of S9SP"}]}, {"compound": "pertussis toxin [PTX]", "values": [{"measurement": "effect on S9SP-mediated T-type current inhibition", "setting": "[1]; 400 ng/ml overnight pre-treatment", "value": "completely abolished"}]}]}
